Experimental data: patent US5578608A, “Symmetrical diaryl and diheteroanyl cis epoxy alkanes antiviral compounds” (Eli Lilly and Company, priority 1995, dated 1996)
Where two headings read alike, the source gives them in different places.

Target: T1, HIV-1 protease (Human immunodeficiency virus type 1 group M subtype B, UniProt P04585)
T1 construct: made in house; host or cells: E. coli K12 L507/pHP10D (NRRL B-18560)
Experiment: biochemical
Settings: for inhibition at 1 µg/mL: at 1000 ng/ml, read-out: Fluorescence Assay, given as ICxx (1000): xx is the percent inhibition
Protocol: A culture of E. coli K12 L507/pHP10D was grown to mid-log phase at 32° C. in LB media containing 12.5 μg/ml tetracycline. The cultivation temperature was quickly elevated to 40° C. to induce gene expression, and the cells were allowed to grow for 2.5 hours at this temperature before the culture was quickly chilled on ice. The cells were centrifuged and the cell pellet was resuspended in 20 mL 50 mmol MES buffer (pH 6.0) containing 1 mmol EDTA, 1 mmol DTT, 1 mmol PMSF and 10% glycerol ("Buffer A"). Cells were lysed by sonication using a Fischer Model 300 Dismembrator and a microtip probe. Following centrifugation at 27,000 x g, the supernatant was diluted to a total volume of 60 mL with Buffer A and loaded onto a 2.0×19 cm QAE-Sepharose column (1 mL/min, 4° C.), that had been equilibrated in Buffer A. The column was washed isocratically for 180 min and then eluted with a gradient eluent of 0-1.0M NaCl in Buffer A over 120 min. Enzymatic activity was measured by HPLC using the synthetic peptide SQNYPIV as described in Margolin et al., Biochem. Biophys. Res. Commun., […], 554-560 (1990); the production of the p1 peptide (SQNY) was measured.
N^a -Biotin-[…]N^e -FITC)-OH SEQ ID NO: 1
The following buffers and solutions are used in the Fluorescence HIV-1 Protease Inhibitor Assay:
To each well of a round bottom, 96-well plate is added 20 μL of the Enzyme Solution followed by 10 μL of the compound to be evaluated in a 20% aqueous dimethylsulfoxide solution. Purified HIV-1 protease was obtained as described above. The resulting solution is incubated for one hour at room temperature and then 20 μL of a solution containing the substrate, N^a -Biotin-[…]N^e-FITC)-OH, in MES-ALB buffer ([…]) is added to each well. The solutions are then incubated for 16 hours at room temperature and then each well is diluted with 150 μL of MES-ALB buffer.
To each well of a second round bottom, 96-well Pandex plate is added 25 uL of the Avidin Coated Beads Solution. Then, to each well is added 25 μL of the diluted incubation solutions, prepared above. The solutions are mixed thoroughly and the plates are loaded into a Pandex® machine, washed, evacuated and read. Sample detection was performed by excitation at 485 nm, reading the resulting epifluorescence at 535 nm.

[1] = read-out: Fluorescence Assay average IC50 (marked *) (converted)
[2] = read-out: Fluorescence Assay IC50 (converted)
[3] = 16 h incubation at room temperature, MES-ALB buffer pH 5.5, normalized to a positive control, read-out: Fluorescence Assay IC50 (converted)

For CC(C)[C@H](NC(=O)OCc1ccccn1)C(=O)N[C@@H](Cc1ccccc1)[C@@H]1O[C@@H]1[C@H](Cc1ccccc1)NC(=O)[C@@H](NC(=O)OCc1ccccn1)C(C)C [Example 8, 1,6-Diphenyl-2(S),5(S)-di[N-[2(S)-N(pyrid-2-ylmethoxycarbonyl)amino-3-methylbutanoyl]amino]-3,4-cis-epoxyhexane], the IC50 [1] was 349 nM.
With CC[C@H](NC(=O)OCc1ccc2ccccc2n1)C(=O)N[C@@H](Cc1ccccc1)[C@@H]1O[C@@H]1[C@H](Cc1ccccc1)NC(=O)[C@H](CC)NC(=O)OCc1ccc2ccccc2n1 [Example 10, 1,6-Diphenyl-2(S),5(S)-di[N-[2(S)-N[(quinolin-2-ylmethoxy)carbonyl]aminobutanoyl]amino]-3,4-cis-epoxyhexane] the IC50 [2] was 2.19 nM.
For CSC[C@@H](NC(=O)OCc1ccccc1)C(=O)N[C@@H](Cc1ccccc1)[C@@H]1O[C@@H]1[C@H](Cc1ccccc1)NC(=O)[C@@H](CSC)NC(=O)OCc1ccccc1 [Example 11, 1,6-Diphenyl-2(S),5(S)-di[N-[2(S)-N(benzyloxycarbonyl)amino-3-methylthiopropanoyl]amino]-3,4-cis-epoxyhexane], the IC50 (* average IC50, 16 h incubation at room temperature, MES-ALB buffer pH 5.5, normalized to a positive control, read-out: Fluorescence Assay average IC50 (marked *) (converted)) was 248 nM.
With CC(C)[C@H](NC(=O)c1ccc2ccccc2n1)C(=O)N[C@@H](Cc1ccccc1)[C@@H]1O[C@@H]1[C@H](Cc1ccccc1)NC(=O)[C@@H](NC(=O)c1ccc2ccccc2n1)C(C)C [Example 26, 1,6-Diphenyl-2(S),5(S)-di[N-[2(S)-N(quinolin-2-ylcarbonyl)amino-3-methylbutanoyl]amino]-3,4-cis-epoxyhexane] the inhibition at 1 µg/mL was 23%.
With CC[C@H](NC(=O)N(C)Cc1ccccn1)C(=O)N[C@@H](Cc1ccccc1)[C@@H]1O[C@@H]1[C@H](Cc1ccccc1)NC(=O)[C@H](CC)NC(=O)N(C)Cc1ccccn1 [Example 28, 1,6-Diphenyl-2(S),5(S)-di[N-[2(S)-N[[N(methyl)-N(pyrid-2-ylmethyl)amino]carbonyl]aminobutanoyl]amino]-3,4-cis-epoxyhexane] the IC50 [2] was 1090 nM.
Work on CC[C@H](NC(=O)N(C)Cc1ccc2ccccc2n1)C(=O)N[C@@H](Cc1ccc2ccccc2c1)[C@@H]1O[C@@H]1[C@H](Cc1ccc2ccccc2c1)NC(=O)[C@H](CC)NC(=O)N(C)Cc1ccc2ccccc2n1 [Example 32] yielded an IC50 [1] of 181 nM.
In the case of CC[C@H](C)[C@H](NC(=O)N(C)Cc1ccccn1)C(=O)N[C@@H](Cc1ccccc1)[C@@H]1O[C@@H]1[C@H](Cc1ccccc1)NC(=O)[C@@H](NC(=O)N(C)Cc1ccccn1)[C@@H](C)CC [Example 24, 1,6-Diphenyl-2(S),5(S)-di[N-[2(S)-N[[N(methyl)-N(pyrid-2-ylmethyl)amino]carbonyl]amino-3(S)-methylpentanoyl]amino]-3,4-cis-epoxyhexane], the IC50 [3] is reported as 163 nM.
With CC[C@H](C)[C@H](NC(=O)NCc1ccccn1)C(=O)N[C@@H](Cc1ccccc1)[C@@H]1O[C@@H]1[C@H](Cc1ccccc1)NC(=O)[C@@H](NC(=O)NCc1ccccn1)[C@@H](C)CC [Example 31] the IC50 [2] was 32.4 nM.
Molecule CC[C@H](C)[C@H](NC(=O)N(C)Cc1ccccn1)C(=O)N[C@@H](Cc1ccc2ccccc2c1)[C@@H]1O[C@@H]1[C@H](Cc1ccc2ccccc2c1)NC(=O)[C@@H](NC(=O)N(C)Cc1ccccn1)[C@@H](C)CC [Example 33, 1,6-Dinaphth-2-yl-2(S),5(S)-di[N-[2(S)-N-[[N(methyl)-N(pyrid-2-ylmethyl)amino]carbonyl]amino-3(S)-methylpentanoyl]amino]-3,4-cis-epoxyhexane] has an inhibition at 1 µg/mL of 25%.
Molecule CC[C@H](C)[C@H](NC(=O)OCc1ccccc1)C(=O)N[C@@H](Cc1ccccc1)[C@@H]1O[C@@H]1[C@H](Cc1ccccc1)NC(=O)[C@@H](NC(=O)OCc1ccccc1)[C@@H](C)CC [Example 14] has an IC50 [3] of 236 nM.
For CC[C@H](NC(=O)N(C)Cc1ccccn1)C(=O)N[C@@H](CCCc1ccccc1)[C@@H]1O[C@@H]1[C@H](CCCc1ccccc1)NC(=O)[C@H](CC)NC(=O)N(C)Cc1ccccn1 [Example 37, 1,10-Diphenyl-4(S),7(S)-di[N-[2(S)-N-[[N(methyl)-N(pyrid-2-ylmethyl)amino]carbonyl]aminobutanoyl]amino]-5,6-cis-epoxydecane], the IC50 [2] was 206 nM.
CC[C@H](NC(=O)N(C)Cc1ccc2ccccc2n1)C(=O)N[C@@H](CCCc1ccccc1)[C@@H]1O[C@@H]1[C@H](CCCc1ccccc1)NC(=O)[C@H](CC)NC(=O)N(C)Cc1ccc2ccccc2n1 [Example 38, 1,10-Diphenyl-4(S),7(S)-di[N-[2(S)-N-[[N(methyl)-N(quinolin-2-ylmethyl)amino]carbonyl]aminobutanoyl]amino]-5,6-cis-epoxydecane] gave an IC50 [2] of 23.8 nM.
N#CC[C@H](NC(=O)OCc1ccccc1)C(=O)N[C@@H](Cc1ccccc1)[C@@H]1O[C@@H]1[C@H](Cc1ccccc1)NC(=O)[C@H](CC#N)NC(=O)OCc1ccccc1 [Example 6, 1,6-Diphenyl-2(S),5(S)-di[N-[2(S)-N(benzyloxycarbonyl)amino-3-cyanopropanoyl]amino]-3,4-cis-epoxyhexane] was tested, and the IC50 [2] was 880 nM.
CCC(NC(=O)N(C)Cc1ccccn1)C(=O)NC(CSc1ccc2ccccc2c1)C1OC1C(CSc1ccc2ccccc2c1)NC(=O)C(CC)NC(=O)N(C)Cc1ccccn1 [Example 35, 1,6-Dinaphth-2-ylthio-2(S),5(S)-di[N-[2(S)-N-[[N(methyl)-N (pyrid-2-ylmethyl)amino]carbonyl]aminobutanoyl]amino]-3,4-cis-epoxyhexane] showed an inhibition at 1 µg/mL of 23%.
CC(C)(C)[C@H](NC(=O)OCc1ccc2ccccc2n1)C(=O)N[C@@H](Cc1ccccc1)[C@@H]1O[C@@H]1[C@H](Cc1ccccc1)NC(=O)[C@@H](NC(=O)OCc1ccc2ccccc2n1)C(C)(C)C [Example 30] showed an IC50 [2] of 382 nM.
Work on CCCC[C@H](NC(=O)OCc1ccccn1)C(=O)N[C@@H](Cc1ccccc1)[C@@H]1O[C@@H]1[C@H](Cc1ccccc1)NC(=O)[C@H](CCCC)NC(=O)OCc1ccccn1 [Example 25, 1,6-Diphenyl-2(S),5(S)-di[N-[2(S)-N(pyrid-2-ylmethoxycarbonyl)amino]hexanoyl]amino-3,4-cis-epoxyhexane] yielded an inhibition at 1 µg/mL of 40%.
Molecule CC(C)[C@H](NC(=O)N(C)CCc1ccccn1)C(=O)N[C@@H](Cc1ccccc1)[C@@H]1O[C@@H]1[C@H](Cc1ccccc1)NC(=O)[C@@H](NC(=O)N(C)CCc1ccccn1)C(C)C [Example 16, 1,6-Diphenyl-2(S),5(S)-di[N-[2(S)-N-[[N(methyl)-N(pyrid-2-ylethyl)amino]carbonyl]amino-3-methylbutanoyl]amino]-3,4-cis-epoxyhexane] has an inhibition at 1 µg/mL of 32%.
